Results taken from ChEMBL document CHEMBL4507324 (2021).

Key:
Details in all cases: Compound concentration 100.0 nM
[1] = target: MAP kinase-activated protein kinase 2 (Homo sapiens) (UniProt P49137)
[2] = target: Tyrosine-protein kinase Fer (Homo sapiens) (UniProt P16591)
[3] = target: Wee1-like protein kinase (Homo sapiens) (UniProt P30291)
[4] = target: SRSF protein kinase 3 (Homo sapiens) (UniProt Q9UPE1)
[5] = target: Serine/threonine-protein kinase OSR1 (Homo sapiens) (UniProt O95747)
[6] = target: LIM domain kinase 2 (Homo sapiens) (UniProt P53671)
[7] = target: Myosin light chain kinase, smooth muscle (Homo sapiens) (UniProt Q15746)
[8] = tested on: Tyrosine-protein kinase ABL1 (Homo sapiens), P00519 [T315I]
[9] = target: MAP/microtubule affinity-regulating kinase 3 (Homo sapiens) (UniProt P27448)
[10] = target: Ribosomal protein S6 kinase beta-1 (Homo sapiens) (UniProt P23443)
[11] = tested on: Epidermal growth factor receptor (Homo sapiens), P00533 [UNDEFINED MUTATION]
[12] = target: NUAK family SNF1-like kinase 1 (Homo sapiens) (UniProt O60285)
[13] = target: Casein kinase I isoform epsilon (Homo sapiens) (UniProt P49674)
[14] = target: Calcium/calmodulin-dependent protein kinase type 1D (Homo sapiens) (UniProt Q8IU85)
[15] = target: Serine/threonine-protein kinase 25 (Homo sapiens) (UniProt O00506)
[16] = target: Serine/threonine-protein kinase PAK 1 (Homo sapiens) (UniProt Q13153)
[17] = target: Serine/threonine-protein kinase 33 (Homo sapiens) (UniProt Q9BYT3)
[18] = target: Serine/threonine-protein kinase tousled-like 2 (Homo sapiens) (UniProt Q86UE8)
[19] = target: Cyclin-dependent kinase 3 (Homo sapiens) (UniProt Q00526)
[20] = target: Serine/threonine-protein kinase 38-like (Homo sapiens, UniProt Q9Y2H1)
[21] = target: Serine/threonine-protein kinase N2 (Homo sapiens) (UniProt Q16513)
[22] = target: Death-associated protein kinase 3 (Homo sapiens) (UniProt O43293)
[23] = target: Mast/stem cell growth factor receptor Kit (Homo sapiens) (UniProt P10721)
[24] = target: Serine/threonine-protein kinase DCLK2 (Homo sapiens) (UniProt Q8N568)
[25] = target: Serine/threonine-protein kinase 16 (Homo sapiens) (UniProt O75716)
[26] = target: Serine/threonine-protein kinase ULK3 (Homo sapiens) (UniProt Q6PHR2)
[27] = target: Misshapen-like kinase 1 (Homo sapiens) (UniProt Q8N4C8)
[28] = target: Mitogen-activated protein kinase 12 (Homo sapiens) (UniProt P53778)
[29] = target: Casein kinase I isoform gamma-1 (Homo sapiens) (UniProt Q9HCP0)
[30] = target: Mitogen-activated protein kinase kinase kinase 6 (Homo sapiens) (UniProt O95382)
[31] = target: Receptor tyrosine-protein kinase erbB-3 (Homo sapiens) (UniProt P21860)
[32] = tested on: Epidermal growth factor receptor (Homo sapiens), P00533 [UNDEFINED MUTATION]; remark: listed apart in the source
[33] = target: Ephrin type-B receptor 4 (Homo sapiens) (UniProt P54760)
[34] = tested on: Epidermal growth factor receptor (Homo sapiens), P00533 [G719C]
[35] = target: Ribosomal protein S6 kinase alpha-3 (Homo sapiens) (UniProt P51812)
[36] = tested on: Epidermal growth factor receptor (Homo sapiens), P00533 [T790M]
[37] = target: Calcium/calmodulin-dependent protein kinase type 1G (Homo sapiens) (UniProt Q96NX5)
[38] = target: Myosin light chain kinase (Homo sapiens) (UniProt Q32MK0)
[39] = target: Serine/threonine-protein kinase 35 (Homo sapiens) (UniProt Q8TDR2)
[40] = target: Mitogen-activated protein kinase kinase kinase 3 (Homo sapiens) (UniProt Q99759)
[41] = target: ALK tyrosine kinase receptor (Homo sapiens) (UniProt Q9UM73)
[42] = target: Atypical kinase COQ8B, mitochondrial (Homo sapiens) (UniProt Q96D53)
[43] = target: Fibroblast growth factor receptor 4 (Homo sapiens) (UniProt P22455)
[44] = target: Insulin receptor-related protein (Homo sapiens) (UniProt P14616)
[45] = target: Cyclin-dependent kinase 18 (Homo sapiens) (UniProt Q07002)
[46] = tested on: Epidermal growth factor receptor (Homo sapiens), P00533 [L858R,T790M]

Sequence of Serine/threonine-protein kinase OSR1 (Homo sapiens) (O95747 2-527 limits assumed): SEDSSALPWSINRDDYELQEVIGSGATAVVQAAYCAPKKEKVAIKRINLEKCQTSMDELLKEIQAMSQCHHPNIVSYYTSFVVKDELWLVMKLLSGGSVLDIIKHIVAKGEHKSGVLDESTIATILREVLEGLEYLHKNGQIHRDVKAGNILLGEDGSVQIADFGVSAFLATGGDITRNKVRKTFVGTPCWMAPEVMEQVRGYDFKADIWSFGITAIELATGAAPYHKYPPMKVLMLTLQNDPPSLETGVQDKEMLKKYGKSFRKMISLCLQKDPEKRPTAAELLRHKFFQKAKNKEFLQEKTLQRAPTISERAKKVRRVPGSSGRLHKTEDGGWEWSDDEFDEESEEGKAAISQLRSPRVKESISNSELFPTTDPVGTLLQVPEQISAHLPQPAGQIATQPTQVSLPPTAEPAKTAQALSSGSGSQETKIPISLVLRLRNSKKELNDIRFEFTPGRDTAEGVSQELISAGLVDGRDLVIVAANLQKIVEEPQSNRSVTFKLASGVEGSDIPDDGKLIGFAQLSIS
Sequence of ALK tyrosine kinase receptor (Homo sapiens) (Q9UM73 19-1620 limits assumed): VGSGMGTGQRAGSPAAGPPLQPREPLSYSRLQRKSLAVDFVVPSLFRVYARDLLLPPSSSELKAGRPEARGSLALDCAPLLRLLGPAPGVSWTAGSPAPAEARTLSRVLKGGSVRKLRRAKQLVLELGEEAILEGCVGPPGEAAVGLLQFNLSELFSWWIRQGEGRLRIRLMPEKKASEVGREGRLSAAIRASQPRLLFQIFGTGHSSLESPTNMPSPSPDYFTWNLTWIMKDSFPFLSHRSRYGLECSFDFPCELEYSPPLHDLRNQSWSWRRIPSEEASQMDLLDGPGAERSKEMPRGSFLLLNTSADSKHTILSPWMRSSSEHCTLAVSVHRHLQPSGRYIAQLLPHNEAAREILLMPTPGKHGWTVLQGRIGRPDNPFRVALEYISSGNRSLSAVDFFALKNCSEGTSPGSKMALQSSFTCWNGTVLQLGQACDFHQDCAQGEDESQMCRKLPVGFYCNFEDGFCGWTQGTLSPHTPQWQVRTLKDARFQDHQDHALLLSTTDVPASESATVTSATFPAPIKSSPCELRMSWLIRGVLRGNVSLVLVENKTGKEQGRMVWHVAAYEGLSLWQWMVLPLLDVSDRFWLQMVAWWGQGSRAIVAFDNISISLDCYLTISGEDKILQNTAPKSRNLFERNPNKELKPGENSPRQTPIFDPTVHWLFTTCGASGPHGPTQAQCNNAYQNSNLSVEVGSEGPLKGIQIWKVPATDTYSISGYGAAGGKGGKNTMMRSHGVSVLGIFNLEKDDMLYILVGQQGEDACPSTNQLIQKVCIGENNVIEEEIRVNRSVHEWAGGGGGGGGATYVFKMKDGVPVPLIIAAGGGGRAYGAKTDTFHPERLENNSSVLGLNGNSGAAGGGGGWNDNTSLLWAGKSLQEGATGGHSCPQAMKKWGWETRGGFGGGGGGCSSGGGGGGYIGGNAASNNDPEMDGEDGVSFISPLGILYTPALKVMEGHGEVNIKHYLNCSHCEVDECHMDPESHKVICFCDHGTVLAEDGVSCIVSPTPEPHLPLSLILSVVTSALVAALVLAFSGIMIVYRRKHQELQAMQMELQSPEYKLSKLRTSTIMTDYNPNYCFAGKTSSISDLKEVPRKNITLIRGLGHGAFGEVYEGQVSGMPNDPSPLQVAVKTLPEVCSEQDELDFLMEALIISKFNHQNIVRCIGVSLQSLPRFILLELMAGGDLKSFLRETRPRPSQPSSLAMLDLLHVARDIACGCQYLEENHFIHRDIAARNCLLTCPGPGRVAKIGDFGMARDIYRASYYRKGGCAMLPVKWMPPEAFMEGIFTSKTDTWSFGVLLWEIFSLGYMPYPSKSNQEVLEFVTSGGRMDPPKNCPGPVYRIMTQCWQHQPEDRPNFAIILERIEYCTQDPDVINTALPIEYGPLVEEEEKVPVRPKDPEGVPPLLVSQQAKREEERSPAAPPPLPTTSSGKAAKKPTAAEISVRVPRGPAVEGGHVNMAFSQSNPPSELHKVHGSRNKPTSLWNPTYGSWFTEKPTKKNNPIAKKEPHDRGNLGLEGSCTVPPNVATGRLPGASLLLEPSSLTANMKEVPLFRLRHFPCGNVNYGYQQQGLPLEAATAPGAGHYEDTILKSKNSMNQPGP
Sequence of Insulin receptor-related protein (Homo sapiens) (P14616 27-742 limits assumed): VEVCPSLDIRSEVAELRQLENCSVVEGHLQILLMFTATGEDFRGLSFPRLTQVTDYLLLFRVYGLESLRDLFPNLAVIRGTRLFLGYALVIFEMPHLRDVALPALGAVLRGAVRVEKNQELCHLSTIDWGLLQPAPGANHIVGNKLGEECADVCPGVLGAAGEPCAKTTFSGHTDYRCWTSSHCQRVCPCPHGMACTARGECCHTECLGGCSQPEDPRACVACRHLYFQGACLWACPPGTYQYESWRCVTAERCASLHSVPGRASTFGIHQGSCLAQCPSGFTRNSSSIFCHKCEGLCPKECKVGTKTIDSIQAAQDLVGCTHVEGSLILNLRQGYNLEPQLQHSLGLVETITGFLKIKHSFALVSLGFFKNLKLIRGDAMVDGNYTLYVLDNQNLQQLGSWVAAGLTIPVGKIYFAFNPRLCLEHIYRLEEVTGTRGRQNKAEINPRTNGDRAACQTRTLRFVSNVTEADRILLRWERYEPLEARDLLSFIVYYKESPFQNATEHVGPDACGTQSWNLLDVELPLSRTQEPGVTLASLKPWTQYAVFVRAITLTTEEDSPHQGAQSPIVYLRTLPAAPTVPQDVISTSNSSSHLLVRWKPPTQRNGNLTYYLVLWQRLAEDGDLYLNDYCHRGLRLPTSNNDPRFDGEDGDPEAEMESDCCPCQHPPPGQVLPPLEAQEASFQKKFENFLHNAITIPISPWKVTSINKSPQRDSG
Sequence of Insulin receptor-related protein (Homo sapiens) (P14616 747-1297 limits assumed): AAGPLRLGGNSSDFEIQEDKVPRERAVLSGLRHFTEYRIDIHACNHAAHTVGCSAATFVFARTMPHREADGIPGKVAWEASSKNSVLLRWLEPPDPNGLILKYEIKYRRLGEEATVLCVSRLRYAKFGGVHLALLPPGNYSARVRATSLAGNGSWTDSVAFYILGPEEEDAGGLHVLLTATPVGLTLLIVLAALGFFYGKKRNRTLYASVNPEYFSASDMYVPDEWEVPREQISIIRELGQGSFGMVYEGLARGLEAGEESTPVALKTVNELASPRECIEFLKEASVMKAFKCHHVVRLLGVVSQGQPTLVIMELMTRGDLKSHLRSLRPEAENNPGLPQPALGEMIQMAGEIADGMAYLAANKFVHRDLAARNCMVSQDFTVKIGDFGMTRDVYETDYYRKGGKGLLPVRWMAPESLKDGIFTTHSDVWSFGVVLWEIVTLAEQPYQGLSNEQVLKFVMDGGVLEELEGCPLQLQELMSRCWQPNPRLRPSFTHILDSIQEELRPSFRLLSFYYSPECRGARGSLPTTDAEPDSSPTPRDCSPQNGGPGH
Sequence of Serine/threonine-protein kinase DCLK2 (Homo sapiens) (Q8N568 whole entry): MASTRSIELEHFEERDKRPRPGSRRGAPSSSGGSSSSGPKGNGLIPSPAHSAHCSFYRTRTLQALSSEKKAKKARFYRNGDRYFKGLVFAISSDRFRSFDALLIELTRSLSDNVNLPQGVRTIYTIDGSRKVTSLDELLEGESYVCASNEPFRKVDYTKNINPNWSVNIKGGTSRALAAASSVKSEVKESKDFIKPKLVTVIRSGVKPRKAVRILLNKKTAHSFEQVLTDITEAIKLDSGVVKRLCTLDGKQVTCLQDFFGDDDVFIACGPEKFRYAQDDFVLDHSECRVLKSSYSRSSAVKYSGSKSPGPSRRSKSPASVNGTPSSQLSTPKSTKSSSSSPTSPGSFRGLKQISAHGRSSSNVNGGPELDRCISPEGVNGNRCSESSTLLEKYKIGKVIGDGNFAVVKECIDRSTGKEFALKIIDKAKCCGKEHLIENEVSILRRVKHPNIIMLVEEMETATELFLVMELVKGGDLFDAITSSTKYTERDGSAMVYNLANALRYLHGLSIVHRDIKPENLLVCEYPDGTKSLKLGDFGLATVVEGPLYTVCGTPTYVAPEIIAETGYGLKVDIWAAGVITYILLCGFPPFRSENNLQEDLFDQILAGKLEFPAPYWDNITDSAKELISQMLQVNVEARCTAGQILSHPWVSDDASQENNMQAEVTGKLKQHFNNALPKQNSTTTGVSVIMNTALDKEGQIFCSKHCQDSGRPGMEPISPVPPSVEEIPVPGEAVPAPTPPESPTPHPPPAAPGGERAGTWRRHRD
Sequence of Serine/threonine-protein kinase tousled-like 2 (Homo sapiens) (Q86UE8 whole entry, looked up): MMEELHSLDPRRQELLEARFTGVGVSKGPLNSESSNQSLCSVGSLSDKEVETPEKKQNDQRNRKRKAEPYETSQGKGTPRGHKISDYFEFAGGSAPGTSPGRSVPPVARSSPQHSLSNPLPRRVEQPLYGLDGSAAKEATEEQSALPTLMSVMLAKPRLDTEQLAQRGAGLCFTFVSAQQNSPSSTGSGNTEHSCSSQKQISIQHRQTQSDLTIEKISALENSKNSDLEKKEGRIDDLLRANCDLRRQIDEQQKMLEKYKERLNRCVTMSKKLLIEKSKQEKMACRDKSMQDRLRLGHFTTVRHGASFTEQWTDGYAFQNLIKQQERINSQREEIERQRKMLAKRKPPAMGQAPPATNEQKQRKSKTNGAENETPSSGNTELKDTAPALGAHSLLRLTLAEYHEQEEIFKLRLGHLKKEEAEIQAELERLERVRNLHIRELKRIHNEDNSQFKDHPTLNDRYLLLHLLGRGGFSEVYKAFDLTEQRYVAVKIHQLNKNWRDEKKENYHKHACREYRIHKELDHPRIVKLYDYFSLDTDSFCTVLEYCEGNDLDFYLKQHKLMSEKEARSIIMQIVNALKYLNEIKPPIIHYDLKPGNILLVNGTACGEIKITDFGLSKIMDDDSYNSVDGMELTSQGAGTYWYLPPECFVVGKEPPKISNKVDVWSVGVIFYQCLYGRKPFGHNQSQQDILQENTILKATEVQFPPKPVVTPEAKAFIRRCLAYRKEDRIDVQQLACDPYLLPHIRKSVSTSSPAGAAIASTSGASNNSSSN

Structure (SMILES): CS(=O)(=O)N1CCCC(NC(=O)[C@H](CCC2CCCCC2)NC(=O)c2ccc(CNc3ncnc4c3nnn4-c3ccccc3)cc2)C1 (some centres not stated) [SR-301]
- residual activity [1]: 100%
- residual activity [2]: 86%
- residual activity [3]: 72%
- residual activity [4]: 100%
- residual activity [5]: 100%
- residual activity [6]: 100%
- residual activity [7]: 100%
- residual activity [8]: 100%
- residual activity [9]: 100%
- residual activity [10]: 100%
- residual activity [11]: 93%
- residual activity [12]: 100%
- residual activity [13]: 100%
- residual activity [14]: 97%
- residual activity [15]: 90%
- residual activity [16]: 100%
- residual activity [17]: 84%
- residual activity [18]: 82%
- residual activity [19]: 82%
- residual activity [20]: 24%
- residual activity [21]: 95%
- residual activity [22]: 88%
- residual activity [23]: 100%
- residual activity [24]: 95%
- residual activity [25]: 100%
- residual activity [26]: 99%
- residual activity [27]: 85%
- residual activity [28]: 100%
- residual activity [29]: 100%
- residual activity [30]: 100%
- residual activity [31]: 100%
- residual activity [32]: 100%
- residual activity [33]: 96%
- residual activity [34]: 86%
- residual activity [35]: 100%
- residual activity [36]: 100%
- residual activity [37]: 92%
- residual activity [38]: 100%
- residual activity [39]: 100%
- residual activity [40]: 100%
- residual activity [41]: 100%
- residual activity [42]: 100%
- residual activity [43]: 100%
- residual activity [44]: 100%
- residual activity [45]: 100%
- residual activity [46]: 84%

Structure (SMILES): CS(=O)(=O)N1CCCC(NC(=O)[C@H](CCC2CCCCC2)NC(=O)c2ccc(CNC(=O)c3cnc4ccccn34)cc2)C1 (some centres not stated) [SR-302]
- residual activity [1]: 76%
- residual activity [2]: 99%
- residual activity [3]: 100%
- residual activity [4]: 100%
- residual activity [5]: 94%
- residual activity [6]: 92%
- residual activity [7]: 100%
- residual activity [8]: 100%
- residual activity [9]: 74%
- residual activity [10]: 100%
- residual activity [11]: 90%
- residual activity [12]: 88%
- residual activity [13]: 93%
- residual activity [14]: 88%
- residual activity [15]: 100%
- residual activity [16]: 82%
- residual activity [17]: 100%
- residual activity [18]: 89%
- residual activity [19]: 100%
- residual activity [20]: 40%
- residual activity [21]: 100%
- residual activity [22]: 90%
- residual activity [23]: 100%
- residual activity [24]: 100%
- residual activity [25]: 100%
- residual activity [26]: 100%
- residual activity [27]: 85%
- residual activity [28]: 100%
- residual activity [29]: 100%
- residual activity [30]: 100%
- residual activity [31]: 83%
- residual activity [32]: 66%
- residual activity [33]: 97%
- residual activity [34]: 100%
- residual activity [35]: 100%
- residual activity [36]: 100%
- residual activity [37]: 84%
- residual activity [38]: 88%
- residual activity [39]: 100%
- residual activity [40]: 100%
- residual activity [41]: 100%
- residual activity [42]: 100%
- residual activity [43]: 100%
- residual activity [44]: 100%
- residual activity [45]: 100%
- residual activity [46]: 100%
